Source: article PMC6990405, “Synthesis and Structure–Activity relationship of 1-(5-isoquinolinesulfonyl)piperazine analogues as inhibitors of Mycobacterium tuberculosis IMPDH” (European Journal of Medicinal Chemistry, 2019)
Converted amounts (≈) assume the structure as drawn. Read-outs that look alike come from different tables or passages of the source.

Key:
M. tuberculosis = system: M. tuberculosis; design: method as in PMID 20934382; conditions: cited from earlier work
[1] = system: wild-type M. tuberculosis strain H37Rv; experiment: microbe, parasite or virus in culture; type: cell-based; conditions: for MIC90: wild-type M. tuberculosis H37Rv, read-out: MIC90 against WT; for fold reduction in whole-cell activity: relative to compound 41
Mtb IMPDH = target: T1, Mtb IMPDH (Mycobacterium tuberculosis, UniProt P9WKI7); experiment: IMPDH biochemical assay (inhibition of Mtb GuaB2); conditions: for IC50: Mtb IMPDH (GuaB2) enzyme
T1 construct: made in house

[2] = target: Mycobacterium thermoresistible (Mth) IMPDH ΔCBS (Mycobacterium thermoresistible) (UniProt G7CNL4); experiment: crystal structure
[3] = Mycobacterium tuberculosis, H37RV

Compound	IC50 (Mtb IMPDH) [nM]	MIC90 [1, 3] [µM]	further results
O=S(=O)(c1cccc2cnccc12)N1CCNCC1 [5-(piperazin-1-ylsulfonyl)isoquinoline]	–	–	MIC against M. tuberculosis (M. tuberculosis): no MIC
Cc1ccc(NC(=O)N2CCN(S(=O)(=O)c3cccc4cnccc34)CC2)c([N+](=O)[O-])c1 [Compound 39, 4-(isoquinolin-5-ylsulfonyl)-N-(4-methyl-2-nitrophenyl)piperazine-1-carboxamide]	600 ± 30	–	MIC90 [1]: 25 µM (≈ 11.4 µg/mL)
Cc1cccc(Cl)c1NC(=O)N1CCN(S(=O)(=O)c2cccc3cnccc23)CC1 [Compound 40, N-(2-chloro-6-methylphenyl)-4-(isoquinolin-5-ylsulfonyl)piperazine-1-carboxamide]	3400 ± 100	250 (≈ 111 µg/mL)	–
O=C(Nc1ccc2c(c1)OCO2)N1CCN(S(=O)(=O)c2cccc3cnccc23)CC1 [Compound 41, N-(benzo[d][1,3]dioxol-5-yl)-4-(isoquinolin-5-ylsulfonyl)piperazine-1-carboxamide]	80 ± 5	6.3 (≈ 2.78 µg/mL)	–
O=S(=O)(c1cccc2cnccc12)N1CCN(C(=S)Nc2ccc3c(c2)OCO3)CC1 [Compound 42, N-(benzo[d][1,3]dioxol-5-yl)-4-(isoquinolin-5-ylsulfonyl)piperazine-1-carbothioamide]	1100 ± 100	50 (≈ 22.8 µg/mL)	fold reduction in whole-cell activity [1]: 8 fold
O=C(Nc1ccc2c(c1)OCO2)N1CCC(NS(=O)(=O)c2cccc3cnccc23)CC1 [Compound 43, 4-[(isoquinoline-5-sulfonyl)amino]-N-(2H-1,3-benzodioxol-5-yl)piperidine-1-carboxamide]	> 100000	> 100	–
O=C(Nc1ccc2c(c1)OCO2)N1CCCN(S(=O)(=O)c2cccc3cnccc23)CC1 [Compound 44, 4-(isoquinoline-5-sulfonyl)-N-(2H-1,3-benzodioxol-5-yl)-1,4-diazepane-1-carboxamide]	600 ± 20	12.5 (≈ 5.68 µg/mL)	fold reduction in whole-cell activity [1]: 2 fold; fold reduction in biochemical activity (Mtb IMPDH; relative to compound 41): 8 fold
CC1CN(S(=O)(=O)c2cccc3cnccc23)CCN1C(=O)Nc1ccc2c(c1)OCO2 (stereo not shown) [Compound 45, N-(benzo[d][1,3]dioxol-5-yl)-4-(isoquinolin-5-ylsulfonyl)-2-methylpiperazine-1-carboxamide]	120 ± 20	12.5 (≈ 5.68 µg/mL)	–
O=C(NCc1ccccc1)N1CCN(S(=O)(=O)c2cccc3cnccc23)CC1 [Compound 46, N-benzyl-4-(isoquinolin-5-ylsulfonyl)piperazine-1-carboxamide]	350 ± 30	3.1 (≈ 1.27 µg/mL)	–
COc1cccc(CNC(=O)N2CCN(S(=O)(=O)c3cccc4cnccc34)CC2)c1 [Compound 47, 4-(isoquinolin-5-ylsulfonyl)-N-(3-methoxybenzyl)piperazine-1-carboxamide]	35 ± 2	3.1 (≈ 1.37 µg/mL)	fold greater potency than 1 (IMPDH) (Mtb IMPDH; relative to compound 1): ~3 fold
Cc1ccccc1CNC(=O)N1CCN(S(=O)(=O)c2cccc3cnccc23)CC1 [Compound 48, 4-(isoquinolin-5-ylsulfonyl)-N-(2-methylbenzyl)piperazine-1-carboxamide]	270 ± 30	3.9 (≈ 1.66 µg/mL)	–
O=C(OCc1ccccc1)N1CCN(S(=O)(=O)c2cccc3cnccc23)CC1 [Compound 49, Benzyl 4-(isoquinolin-5-ylsulfonyl)piperazine-1-carboxylate]	800 ± 50	100 (≈ 41.1 µg/mL)	–
Mycobacterium thermoresistible (Mth) IMPDH ΔCBS (from UniProt G7CNL4 1-513) (enzyme)	–	–	stoichiometry N [2]: 4
